Measured values taken from ChEMBL document CHEMBL5674860, “Optimized Dual-Glo Assay to identify co-culture-induced drug vulnerabilities in 3D CRC models” (2024).

How the values were obtained:
Format in all cases: functional, Homo sapiens
Design in all cases: dose or concentration left out as unconfirmed
[1] = system: Colon cancer organoid; assay: Optimized Dual-Glo assay to identify co-culture induced drug vulnerabilities using donated chemical probes and chemogenomics kinase set in O06 CRC organoid and F06 CAF mono and co-culture. […] Cell viability is reported both mono and co-culture models.
[2] = system: Colon cancer organoid; assay: Optimized Dual-Glo assay to identify co-culture induced drug vulnerabilities using donated chemical probes and chemogenomics kinase set in O14 CRC organoid and F14 CAF mono and co-culture. […] Cell viability is reported both mono and co-culture models.
[3] = system: Colon cancer organoid; assay: Optimized Dual-Glo assay to identify co-culture induced drug vulnerabilities using donated chemical probes and chemogenomics kinase set in O20 CRC organoid and F20 CAF mono and co-culture. […] Cell viability is reported both mono and co-culture models.
[4] = Culture type Co-Culture, Transduced with Lucferase2-P2A-EGFP lentivirus
[5] = Culture type Co-Culture, Transduced with Renilla-dsRed lentivirus
[6] = Culture type Mono-Culture, Transduced with Lucferase2-P2A-EGFP lentivirus
[7] = Culture type Mono-Culture, Transduced with Renilla-dsRed lentivirus

Cc1ncsc1-c1ccc(CNC(=O)[C@@H]2C[C@@H](O)CN2C(=O)[C@@H](NC(=O)CCCCNC(=O)c2ccc(-c3ccc(N4CCN(C)CC4)c(NC(=O)c4c[nH]c(=O)cc4C(F)(F)F)c3)cc2)C(C)(C)C)cc1
Cell Viability [1, 4]: 81.8894%
Cell Viability [1, 5]: 85.2238%
Cell Viability [1, 6]: 101.813%
Cell Viability [1, 7]: 95.3362%
Cell Viability [2, 4]: 94.9121%
Cell Viability [2, 5]: 103.946%
Cell Viability [2, 6]: 89.8204%
Cell Viability [2, 7]: 93.3904%
Cell Viability [3, 4]: 171.817%
Cell Viability [3, 5]: 86.697%
Cell Viability [3, 6]: 106.449%
Cell Viability [3, 7]: 104.541%

CCCCNc1ncc(-c2ccc(CN3CCOCC3)cn2)c(N[C@H]2CC[C@H](O)CC2)n1
Cell Viability [1, 4]: 22.8495%
Cell Viability [1, 5]: 123.664%
Cell Viability [1, 6]: 12.6023%
Cell Viability [1, 7]: 77.4775%
Cell Viability [2, 4]: 23.305%
Cell Viability [2, 5]: 148.151%
Cell Viability [2, 6]: 59.2421%
Cell Viability [2, 7]: 71.142%
Cell Viability [3, 4]: 8.774%
Cell Viability [3, 5]: 223.767%
Cell Viability [3, 6]: 10.8517%
Cell Viability [3, 7]: 82.0591%

COc1cc2c(cc1NS(=O)(=O)c1ccc(Br)cc1C)n(C)c(=O)n2C
Cell Viability [1, 4]: 53.0589%
Cell Viability [1, 5]: 146.987%
Cell Viability [1, 6]: 78.5311%
Cell Viability [1, 7]: 120.075%
Cell Viability [2, 4]: 78.4023%
Cell Viability [2, 5]: 92.6515%
Cell Viability [2, 6]: 95.4962%
Cell Viability [2, 7]: 108.084%
Cell Viability [3, 4]: 86.3374%
Cell Viability [3, 5]: 193.757%
Cell Viability [3, 6]: 91.9028%
Cell Viability [3, 7]: 113.163%

CCOCCn1cc(C(=O)Nc2ccc(-n3nc(-c4cccnc4)cc3C(F)(F)F)cn2)ccc1=O [BI 1935]
Cell Viability [1, 4]: 92.9458%
Cell Viability [1, 5]: 113.636%
Cell Viability [1, 6]: 108.149%
Cell Viability [1, 7]: 105.749%
Cell Viability [2, 4]: 119.66%
Cell Viability [2, 5]: 103.733%
Cell Viability [2, 6]: 123.828%
Cell Viability [2, 7]: 100.697%
Cell Viability [3, 4]: 76.3275%
Cell Viability [3, 5]: 148.205%
Cell Viability [3, 6]: 94.4512%
Cell Viability [3, 7]: 98.9549%

CC(C)S(=O)(=O)c1ccc2nccc(Nc3ccc4scnc4c3)c2c1
Cell Viability [1, 4]: 84.0973%
Cell Viability [1, 5]: 95.5761%
Cell Viability [1, 6]: 123.937%
Cell Viability [1, 7]: 111.512%
Cell Viability [2, 4]: 101.708%
Cell Viability [2, 5]: 94.4181%
Cell Viability [2, 6]: 92.6068%
Cell Viability [2, 7]: 100.536%
Cell Viability [3, 4]: 145.741%
Cell Viability [3, 5]: 98.2209%
Cell Viability [3, 6]: 115.329%
Cell Viability [3, 7]: 92.1603%

O=C(Nc1cccnc1)c1cc(-c2ccnc(F)c2)ccc1OCc1ccccc1
Cell Viability [1, 4]: 87.3368%
Cell Viability [1, 5]: 83.1264%
Cell Viability [1, 6]: 73.6273%
Cell Viability [1, 7]: 99.0368%
Cell Viability [2, 4]: 118.198%
Cell Viability [2, 5]: 103.257%
Cell Viability [2, 6]: 132.36%
Cell Viability [2, 7]: 106.667%
Cell Viability [3, 4]: 125.655%
Cell Viability [3, 5]: 104.766%
Cell Viability [3, 6]: 84.3573%
Cell Viability [3, 7]: 88.986%

O=C(NNS(=O)(=O)c1ccccc1F)c1cc(F)cc(-c2ccccn2)c1 [WM-1119]
Cell Viability [1, 4]: 97.0333%
Cell Viability [1, 5]: 108.11%
Cell Viability [1, 6]: 61.3742%
Cell Viability [1, 7]: 91.757%
Cell Viability [2, 4]: 33.671%
Cell Viability [2, 5]: 171.323%
Cell Viability [2, 6]: 39.6176%
Cell Viability [2, 7]: 103.912%
Cell Viability [3, 4]: 68.3772%
Cell Viability [3, 5]: 152.012%
Cell Viability [3, 6]: 102.739%
Cell Viability [3, 7]: 96.1932%

COc1cccc2c1C(=O)c1c(O)c3c(c(O)c1C2=O)CC(O)(C(=O)CO)CC3OC1CC(N)C(O)C(C)O1.Cl (stereo not drawn)
Cell Viability [1, 4]: 14.9439%
Cell Viability [1, 5]: 235.56%
Cell Viability [1, 6]: 8.313%
Cell Viability [1, 7]: 104.821%
Cell Viability [2, 4]: 1.614%
Cell Viability [2, 5]: 163.438%
Cell Viability [2, 6]: 2.622%
Cell Viability [2, 7]: 97.5605%
Cell Viability [3, 4]: 5.379%
Cell Viability [3, 5]: 237.178%
Cell Viability [3, 6]: 7.074%
Cell Viability [3, 7]: 81.7547%

Cc1cc(CN)cc(C)c1-c1ncn(C)c1-c1ccnc2cc(F)ccc12.Cl
Cell Viability [1, 4]: 105.057%
Cell Viability [1, 5]: 123.721%
Cell Viability [1, 6]: 137.219%
Cell Viability [1, 7]: 129.63%
Cell Viability [2, 4]: 87.6168%
Cell Viability [2, 5]: 103.014%
Cell Viability [2, 6]: 105.617%
Cell Viability [2, 7]: 97.8671%
Cell Viability [3, 4]: 143.957%
Cell Viability [3, 5]: 87.6481%
Cell Viability [3, 6]: 139.188%
Cell Viability [3, 7]: 92.4746%
